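Protocol summary: plate cells (96-well), add compound at 5 concentrations, incubate 48 h, interpolate endpoints linearly. TGI: concentration producing complete growth inhibition.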

What all share (test): NCI anticancer screen, dose series, 48 h
Experiment [1] has as its system SK-MEL-5 melanoma.
In experiment [2] the test system is EKVX NSCLC.
For experiment [3], the system named is KM12 colon.
Experiment [4] relates to HCC-2998 colon.
Experiment [5] concerns OVCAR-4 ovarian.
Experiment [6] relates to 786-0 renal.
Experiment [7] has as its system NCI-H23 lung.
Experiment [8] relates to HT29 colon.
Experiment [9] deals with MALME-3M melanoma.
The subject of experiment [10] is UACC-62 melanoma.
For experiment [11], the system named is SR leukemia.
Experiment [12] deals with UACC-257 melanoma.
Experiment [13] deals with K-562 leukemia.
For experiment [14], the system named is OVCAR-8 ovarian.
Experiment [15] has as its system COLO 205 colon.
In experiment [16] the test system is IGROV1 ovarian.
In experiment [17] the test system is SK-OV-3 ovarian.
Experiment [18] deals with MDA-MB-231 breast.

Regarding `O=C1c2ccccc2C(=O)N1/N=C1/SC(=Nc2ccccc2)C(=Nc2ccccc2)N1c1ccccc1`, the TGI is greater than 90.3 µM in experiment [1]; greater than 100 µM in experiment [2]; greater than 100 µM in [3]; greater than 100 µM in [4]; greater than 100 µM in experiment [5]; greater than 41.7 µM in [6]. The TGI was greater than 88.6 µM in [7]; greater than 100 µM in [8]; greater than 84.7 µM in experiment [9]; greater than 100 µM in experiment [10]; greater than 31.6 µM in [11]; greater than 100 µM in [12]. For the same molecule, the TGI in [13] was greater than 100 µM; in experiment [14], greater than 75.9 µM; in experiment [15], greater than 100 µM; in experiment [16], greater than 100 µM.
For the molecule `OCC(O)COCn1cc(Cn2ncc3c(SCc4ccccc4)ncnc32)nn1` (stereo not given), the TGI in experiment [1], in experiment [2], in experiment [3], in experiment [4], in experiment [5] and in experiment [6] was greater than 100 µM each time. Besides, the TGI in experiment [7], in [8], in [10], in experiment [17], in experiment [12] and in [13] was greater than 100 µM in each case. Moreover, the TGI in [14], in experiment [18], in experiment [15] and in experiment [16] was greater than 100 µM throughout.
As to `N#CC(C#N)=c1c(=O)c2c3ccccc3cc3cccc1c32`, the TGI in experiment [1], in [3], in experiment [4], in experiment [5], in experiment [6] and in [7] was greater than 100 µM in each case. Moreover, the TGI in experiment [8], in [10], in [17], in experiment [12], in [18] and in experiment [15] was greater than 100 µM throughout. For the same molecule, the TGI in experiment [16] was greater than 100 µM.
In the case of `O=C(O)CN1CCSc2ccccc2CN(CC(=O)O)CCSc2ccccc2C1`, the TGI in experiment [1], in experiment [2], in [3], in experiment [4], in experiment [6] and in experiment [7] was greater than 100 µM throughout. The TGI in experiment [8] is greater than 100 µM; in [9], greater than 100 µM; in experiment [10], greater than 100 µM; in experiment [17] it was greater than 100 µM; in experiment [11], 84.5 µM; in [12] it was greater than 100 µM. Moreover, the TGI in experiment [13], in experiment [14], in [15] and in experiment [16] was greater than 100 µM throughout.
With `C=CC(=O)NCCC(=O)OCn1cc(F)c(=O)[nH]c1=O`, the TGI in experiment [1] is greater than 100 µM; in experiment [2] it was greater than 100 µM; in experiment [3], greater than 100 µM; in [4] it was greater than 100 µM; in [5], 40.3 µM; in experiment [6], greater than 100 µM. Besides, the TGI is greater than 100 µM in experiment [7]; greater than 100 µM in experiment [8]; greater than 100 µM in [9]; greater than 100 µM in experiment [10]; greater than 100 µM in experiment [17]; 52.5 µM in experiment [11]. Besides, the TGI in experiment [12], in experiment [13], in experiment [14], in experiment [15] and in experiment [16] was greater than 100 µM each time.
With `O=C(O)c1cc(CCc2ccc(O)c(O)c2)ccc1O`, the TGI in [1], in experiment [3], in [4], in experiment [6], in experiment [7] and in [8] was greater than 100 µM throughout. For the same molecule, the TGI in experiment [9] is greater than 100 µM; in [10], greater than 100 µM; in experiment [17], greater than 100 µM; in experiment [11], 61.7 µM; in [12], greater than 100 µM; in [13] it was 45.8 µM. In addition, the TGI in experiment [14], in [15] and in experiment [16] was greater than 100 µM throughout.
On to `CC(=O)OCC1OC(N2C(=O)[C@@H](Oc3ccccc3)[C@H]2/C=C/c2ccccc2)C(OC(C)=O)C(OC(C)=O)C1OC(C)=O` (stereo not given in full), for which the TGI in experiment [1], in experiment [2], in experiment [4], in [5], in experiment [6] and in [7] was greater than 100 µM throughout. Besides, the TGI in [8], in [9], in experiment [10], in [17], in experiment [11] and in experiment [12] was greater than 100 µM throughout. Also, the TGI in [13], in [14], in [15] and in [16] was greater than 100 µM in each case.
With `O=C(Cc1ccccc1)NN1C(=O)C(Cl)C1c1ccc(Cl)cc1` (stereo not given), the TGI in [1], in [2], in [3], in experiment [4], in [5] and in experiment [6] was greater than 100 µM throughout. The TGI in experiment [7], in experiment [8], in experiment [9], in [10], in [17] and in experiment [11] was greater than 100 µM throughout. Further, the TGI in experiment [12], in experiment [13], in [14], in [15] and in [16] was greater than 100 µM throughout.
Turning to `COc1cc([C@@H]2c3cc4c(cc3[C@H](OC3OC5COC(c6ccco6)OC5C(O)C3O)C3COC(=O)[C@@H]32)OCO4)cc(OC)c1OC` (stereo not given in full), the TGI in experiment [1] is greater than 72.4 µM; in [3] it was greater than 100 µM; in experiment [4], greater than 100 µM; in experiment [5] it was greater than 100 µM; in [6], greater than 34.5 µM; in experiment [7], greater than 79.4 µM. The TGI in [8], in experiment [9], in experiment [10], in experiment [17], in experiment [12] and in experiment [14] was greater than 100 µM each time. In addition, the TGI was greater than 100 µM in [18], greater than 31.3 µM in experiment [15] and greater than 52.7 µM in experiment [16].
`Cc1nnc2n1N=C(c1cc(F)c(Cl)cc1Cl)/C(=C/c1ccc(-c3ccc([N+](=O)[O-])cc3)o1)S2`: the TGI in experiment [1], in [2], in experiment [3], in experiment [4], in experiment [5] and in [6] was greater than 100 µM throughout. For the same molecule, the TGI in experiment [7], in [8], in experiment [9], in experiment [10], in [17] and in experiment [11] was greater than 100 µM throughout. The TGI in experiment [12], in [13], in experiment [14], in [15] and in experiment [16] was greater than 100 µM in each case.
Consider `CSC(=S)CC(O)[C@@H]1CC2c3ccccc3C1c1ccccc12` (stereo not given in full), for which the TGI in experiment [1] turned out to be 30.5 µM; in experiment [3] it was 25.5 µM; in experiment [4], 28.2 µM; in experiment [5], 27.5 µM; in experiment [6] it was 41.3 µM; in experiment [7], 22.2 µM. Besides, the TGI in experiment [8] was 15 µM; in [9] it was 39.1 µM; in experiment [10] it was 25.4 µM; in experiment [17], 28.7 µM; in experiment [13], 30.4 µM; in [14], 39.2 µM. Moreover, the TGI in [18] was 54.3 µM; in experiment [15], 36.4 µM; in experiment [16] it was 33.1 µM.
With `CN(C)CCNc1ccc(NCC[N+](C)(C)Cc2ccc([N+](=O)[O-])cc2)c2c1C(=O)c1c(O)ccc(O)c1C2=O`, the TGI in experiment [1] was 47.5 µM; in [2] it was greater than 100 µM; in experiment [3] it was greater than 100 µM; in [5] it was greater than 100 µM; in [6] it was greater than 100 µM; in experiment [7], greater than 100 µM. Further, the TGI in [8], in experiment [10], in experiment [13], in [14], in experiment [18] and in experiment [15] was greater than 100 µM throughout. The same molecule returned a TGI in experiment [16] greater than 100 µM.
With `CCN(CC)C(=O)CCn1ccc(=O)[nH]c1=O`, the TGI in [1], in [2], in experiment [3], in experiment [5], in experiment [6] and in experiment [7] was greater than 100 µM each time. The TGI in [8], in experiment [9], in experiment [10], in experiment [11], in experiment [13] and in [14] was greater than 100 µM each time. For the same molecule, the TGI in experiment [15] and in experiment [16] was greater than 100 µM in each case.

These data come from PubChem BioAssay (NCI).
